# Assay results published in patent US20260015337A1 (Trawsfynydd Therapeutics, Inc., priority 2022, published 2026).
# Biological target: 3CL Protease (Severe acute respiratory syndrome coronavirus 2, UniProt P0DTD1)
# Experiment: 3CL Protease enzymatic activity assay (BPS Bioscience Assay Kit #78043-1, fluorescence)
# Assay type: biochemical, SARS-CoV-2
# Settings: Table A; 30 min preincubation, 40 μM substrate, 4 hours at room temperature; read-out: IC50, nM (3CL Protease enzymatic activity)
# Description: For determination of 3CL Protease enzymatic activity was used Assay Kit of BPS Bioscience, San Diego, CA (Catalog #78043-1).
# All samples and controls should be tested in duplicate. • 1) Just before use, dilute 0.5 M DTT 500 times into the 3CL Protease Assay Buffer to obtain a DTT concentration of 1 mM. For example, add 10 μl of 0.5 M DTT to 5 ml of assay buffer. Prepare enough DTT-containing buffer as required for the assay. Store the remaining assay buffer at −20° C. • 2) Thaw the 3CL Protease on ice. Briefly spin the tube containing the enzyme to recover the full content of the tube. Note: 3CL Protease enzyme is sensitive to freeze/thaw cycles. […] Note: The exact concentration and volume of enzyme is lot-specific and will be indicated on the tube. Calculate required dilution from the information in the tube. It may be desirable to dilute the enzyme serially to avoid using large amounts of protease assay buffer for the dilution. • 4) Add 30 μl of diluted 3CL Protease to the wells designated as “Positive Control,” “Inhibitor Control,” and “Test Inhibitor.” Add 30 μl of Assay Buffer (containing 1 mM DTT) to the “Blank” wells. • 5) Dilute the 50 μg GC376 in 200 μl of Assay Buffer to obtain a 500 μM solution. Add 10 μl of GC376 (500 μM) to the wells labeled “Inhibitor Control”. Aliquot and store the remaining solution at −80° C. • 6) Prepare the Test Inhibitor. The final concentration of DMSO in the assay should not exceed 1%. If the Test Inhibitor is dissolved in DMSO, make a 100-fold higher concentration of the compound than the highest desired concentration. Then make a 20-fold dilution in 1× Assay Buffer (containing DTT). At this step the compound concentration is 5-fold higher than the final concentration. If the test inhibitor is dissolved in water, make a 5-fold higher concentration of the test compound than the final desired concentration in the Assay buffer (containing DTT). Add 10 μl of Test Inhibitor to each well designated “Test Inhibitor”. • 7) Diluent Solution (no inhibitor): add 10 μl of assay buffer (if the test compound is water soluble and was diluted in assay buffer) or 10 μl of 5% DMSO diluted in assay buffer (if DMSO was used to dissolve the test inhibitor) to “Blank” and “Positive Control” wells.
# • 8) Preincubate for 30 min at room temperature with slow shaking. • 9) Dilute the 25 μl of 3CL Protease substrate (10 mM) in 1.25 ml of the Assay Buffer containing DTT, to make a […] solution. The final concentration of the 3CL Protease substrate in a 50 μl reaction is 40 μM. • 10) Start the reaction by adding 10 μl of the substrate solution to all the wells. Seal the plate with the plate sealer and incubate for 4 hours at room temperature with slow shaking. • 11) Measure the fluorescence intensity in a microtiter plate-reader fluorometer (Tecan Spark Cyto) capable of excitation at a wavelength 360 nm and detection of emission at a wavelength 460 nm. The fluorescence intensity can also be measured kinetically. The “Blank” value is subtracted from all other values. • The % inhibition was then used to calculate the IC50 values.
row,Structure (SMILES),IC50
1,"Cc1cc2cc(C[C@@H](C#N)NC(=O)[C@@H]3[C@@H]4[C@H](CN3C(=O)[C@@H](NC(=O)C(F)(F)F)C(C)(C)C)C4(C)C)c(=O)[nH]c2cc1F [Compound 176, (1R,2S,5S)—N—((S)-1-Cyano-2-(7-fluoro-6-methyl-2-oxo-1,2-dihydroquinolin-3-yl)ethyl)-3-((S)-3,3-dimethyl-2-(2,2,2-trifluoroacetamido)butanoyl)-6,6-dimethyl-3-azabicyclo[3.1.0]hexane-2-carboxamide]",50 to 100 nM
2,"Cc1ccc2c(c1)CC(C[C@@H](C#N)NC(=O)[C@@H]1[C@@H]3[C@H](CN1C(=O)[C@@H](NC(=O)C(F)(F)F)C(C)(C)C)C3(C)C)C(=O)N2 (stereo partly drawn) [Compound 120, (1R,2S,5S)—N-[(1S)-1-Cyano-2-(6-methyl-2-oxo-3,4-dihydro-1H-quinolin-3-yl)ethyl]-3-[(2S)-3,3-dimethyl-2-[(2,2,2-trifluoroacetyl)amino]butanoyl]-6,6-dimethyl-3-azabicyclo[3.1.0]hexane-2-carboxamide]",< 50 nM
3,"CC(C)(C)[C@H](NS(C)(=O)=O)C(=O)N1C[C@H]2[C@@H]([C@H]1C(=O)N[C@@H](C#N)Cc1cc3cnccc3[nH]c1=O)C2(C)C [Compound 189, (1R,2S,5S)—N—((R)-1-Cyano-2-(2-oxo-1,2-dihydro-1,6-naphthyridin-3-yl)ethyl)-3-((S)-3,3-dimethyl-2-(methylsulfonamido)butanoyl)-6,6-dimethyl-3-azabicyclo[3.1.0]hexane-2-carboxamide]",≥ 1000 nM
4,"COc1ccc2[nH]c(=O)c(CC(C#N)NC(=O)[C@@H]3C4[C@H](CN3C(=O)[C@@H](NC(=O)C(F)(F)F)C(C)(C)C)C4(C)C)cc2c1 (stereo in doubt) [Compound 109, (1R,2S,5S)—N-(1-Cyano-2-(6-methoxy-2-oxo-1,2-dihydroquinolin-3-yl)ethyl)-3-((S)-3,3-dimethyl-2-(2,2,2-trifluoroacetamido)butanoyl)-6,6-dimethyl-3-azabicyclo[3.1.0]hexane-2-carboxamide]",250 to 500 nM
5,"CC1(C)CCc2[nH]c(=O)c(CC(C#N)NC(=O)[C@@H]3C4[C@H](CN3C(=O)[C@@H](NS(C)(=O)=O)C(C)(C)C)C4(C)C)cc2C1 (stereo in doubt) [Compound 128, (1R,2S,5S)—N-(1-Cyano-2-(6,6-dimethyl-2-oxo-1,2,5,6,7,8-hexahydroquinolin-3-yl)ethyl)-3-((S)-3,3-dimethyl-2-(methylsulfonamido)butanoyl)-6,6-dimethyl-3-azabicyclo[3.1.0]hexane-2-carboxamide]",500 to 1000 nM
6,"CC(C)(C)[C@H](NC(=O)C(F)(F)F)C(=O)N1C[C@H]2C([C@H]1C(=O)NC(C#N)Cc1cc3c([nH]c1=O)CCC(F)(F)C3)C2(C)C (stereo in doubt) [Compound 125, (1R,2S,5S)—N-(1-Cyano-2-(6,6-difluoro-2-oxo-1,2,5,6,7,8-hexahydroquinolin-3-yl)ethyl)-3-((S)-3,3-dimethyl-2-(2,2,2-trifluoroacetamido)butanoyl)-6,6-dimethyl-3-azabicyclo[3.1.0]hexane-2-carboxamide]",250 to 500 nM
7,"Cc1ccc2[nH]c(=O)c(C[C@@H](C#N)NC(=O)[C@@H]3[C@@H]4[C@H](CN3C(=O)Cc3cc(C(F)(F)F)no3)C4(C)C)cc2c1 [Compound 193, (1R,2S,5S)—N—((S)-1-Cyano-2-(6-methyl-2-oxo-1,2-dihydroquinolin-3-yl)ethyl)-6,6-dimethyl-3-(2-(3-(trifluoromethyl)isoxazol-5-yl)acetyl)-3-azabicyclo[3.1.0]hexane-2-carboxamide]",≥ 1000 nM
8,"CC(C)(C)[C@H](NC(=O)C(F)(F)F)C(=O)N1C[C@H]2[C@@H]([C@H]1C(=O)N[C@@H](C#N)Cc1cc3cnccc3[nH]c1=O)C2(C)C [Compound 173, (1R,2S,5S)—N—((R)-1-Cyano-2-(2-oxo-1,2-dihydro-1,6-naphthyridin-3-yl)ethyl)-3-((S)-3,3-dimethyl-2-(2,2,2-trifluoroacetamido)butanoyl)-6,6-dimethyl-3-azabicyclo[3.1.0]hexane-2-carboxamide]",≥ 1000 nM
9,"COC(=O)N[C@@H](C(=O)N1CC2C(C1C(=O)N[C@@H](C#N)Cc1cc3cc(C)ccc3[nH]c1=O)C2(C)C)C(C)(C)C (stereo in doubt) [Compound 200, Methyl N-[(1R)-1-[(1S)-2-[[(1R)-1-cyano-2-(6-methyl-2-oxo-1H-quinolin-3-yl)ethyl]carbamoyl]-6,6-dimethyl-3-azabicyclo[3.1.0]hexane-3-carbonyl]-2,2-dimethyl-propyl]carbamate]",< 50 nM
10,"Cc1ccc2[nH]c(=O)c(CC(C#N)NC(=O)[C@@H]3[C@H]4[C@H](CN3C(=O)[C@@H](Nc3ccnc(C)n3)C(C)(C)C)C4(C)C)cc2c1 (some centres unmarked) [Compound 153, 3-[3,3-Dimethyl-2-(2-methyl-pyrimidin-4-ylamino)-butyryl]-6,6-dimethyl-3-aza-bicyclo[3.1.0]hexane-2-carboxylic acid [1-cyano-2-(6-methyl-2-oxo-1,2-dihydro-quinolin-3-yl)-ethyl]-amide]",≥ 1000 nM
11,"CC(C)(C)[C@H](NC(=O)C(F)(F)F)C(=O)N1C[C@H]2C([C@H]1C(=O)NC(C#N)Cc1cc3ccc(F)cc3[nH]c1=O)C2(C)C (stereo in doubt) [Compound 106, (1R,2S,5S)—N-(1-Cyano-2-(7-fluoro-2-oxo-1,2-dihydroquinolin-3-yl)ethyl)-3-((S)-3,3-dimethyl-2-(2,2,2-trifluoroacetamido)butanoyl)-6,6-dimethyl-3-azabicyclo[3.1.0]hexane-2-carboxamide]",100 to 250 nM
12,"Cc1ccc2cc(CC(C#N)NC(=O)[C@@H]3C4[C@H](CN3C(=O)[C@@H](NC(=O)C(F)(F)F)C(C)(C)C)C4(C)C)c(=O)[nH]c2c1 (stereo in doubt) [Compound 146, (1R,2S,5S)—N-(1-Cyano-2-(7-methyl-2-oxo-1,2-dihydroquinolin-3-yl)ethyl)-3-((S)-3,3-dimethyl-2-(2,2,2-trifluoroacetamido)butanoyl)-6,6-dimethyl-3-azabicyclo[3.1.0]hexane-2-carboxamide]",50 to 100 nM
13,"Cc1ccc2[nH]c(=O)c(C[C@@H](C#N)NC(=O)[C@@H]3[C@@H]4[C@H](CN3C(=O)Cc3cc(C)no3)C4(C)C)cc2c1 [Compound 192, (1R,2S,5S)—N—((S)-1-Cyano-2-(6-methyl-2-oxo-1,2-dihydroquinolin-3-yl)ethyl)-6,6-dimethyl-3-(2-(3-methylisoxazol-5-yl)acetyl)-3-azabicyclo[3.1.0]hexane-2-carboxamide]",≥ 1000 nM
14,"CC1(C)CCc2[nH]c(=O)c(CC(C#N)NC(=O)[C@@H]3C4[C@H](CN3C(=O)[C@@H](NC(=O)C(F)(F)F)C(C)(C)C)C4(C)C)cc2C1 (stereo in doubt) [Compound 127, (1R,2S,5S)—N-(1-Cyano-2-(6,6-dimethyl-2-oxo-1,2,5,6,7,8-hexahydroquinolin-3-yl)ethyl)-3-((S)-3,3-dimethyl-2-(2,2,2-trifluoroacetamido)butanoyl)-6,6-dimethyl-3-azabicyclo[3.1.0]hexane-2-carboxamide]",500 to 1000 nM
15,"Cn1cccc(CC(C#N)NC(=O)[C@@H]2C3[C@H](CN2C(=O)[C@@H](NC(=O)C(F)(F)F)C(C)(C)C)C3(C)C)c1=O (stereo in doubt) [Compound 112, (1R,2S,5S)—N-(1-Cyano-2-(1-methyl-2-oxo-1,2-dihydropyridin-3-yl)ethyl)-3-((S)-3,3-dimethyl-2-(2,2,2-trifluoroacetamido)butanoyl)-6,6-dimethyl-3-azabicyclo[3.1.0]hexane-2-carboxamide]",≥ 1000 nM
16,"Cc1ccc2[nH]c(=O)c(C[C@H](C#N)NC(=O)[C@@H]3[C@H]4[C@H](CN3C(=O)[C@@H](NC(=O)C(F)(F)F)C(C)(C)C)C4(C)C)cc2c1 [Compound 114, (1S,2S,5S)—N-[(1R)-1-cyano-2-(6-methyl-2-oxo-1H-quinolin-3-yl)ethyl]-3-[(2S)-3,3-dimethyl-2-[(2,2,2-trifluoroacetyl)amino]butanoyl]-6,6-dimethyl-3-azabicyclo[3.1.0]hexane-2-carboxamide]",≥ 1000 nM

# Same assay, conditions: Table B; comparison with known compound K; read-out: IC50, nM (3CL Protease enzymatic activity, comparative data)
row,Structure (SMILES),IC50
1,"CC(C)(C)[C@H](NC(=O)C(F)(F)F)C(=O)N1C[C@H]2[C@@H]([C@H]1C(=O)N[C@H](C#N)C[C@@H]1CCCNC1=O)C2(C)C [K, reference compound]",1290 nM
